Patent publication US9018391B2, “Inhibitors of beta-secretase” (Boehringer Ingelheim International GmbH, priority 2012, dated 2015)

Assays:
[1] = system: human hematopoetic U937 cell line; experiment: In Vitro Phospholipidosis Assay (Assay 3), Nile red staining; format: cell-based; conditions: first effect concentration; U937 cells, 48 h; read-out: Phospholipidosis FEC IC50 μM (assay 3)
Protocol: (§1) In Vitro Phospholipidosis Assay (Assay 3)
(§2) The phospholipidogenic potential of test compounds was assayed using the human hematopoetic U937 cell line. The test principle was to analyze the phospholipid content by staining the cells with the fluorescent dye Nile red.
(§3) U937 cells were seeded into cell culture plates at 0.5×10^6 cells/mL in RPMI medium containing 10% FBS, 1% DMSO, and 0.005% gentamicin. The cells were cultivated with or without different concentrations of test compound for 48 h under standard culture conditions.
(§4) For harvesting, the cells were centrifuged at 130×g for 4 min and washed once with PBS. Then, 2×0.5 mL cell suspensions were prepared for non-fixed cell measurement (0.5 mL for propidium iodide (PI) viability measurement and 0.5 mL for Nile red measurement).
(§5) The remaining cells were fixed with 3.7% formaldehyde for 30 min. After a further centrifugation step, cells were resuspended with 1.3 mL Nile red working solution (1 μg/mL) and incubated for 5 min at rt. The cell suspension was washed twice with 3 mL PBS and centrifuged with 130×g for 4 min. The supernatant was discarded and the cells were resuspended with 0.5 mL PBS and kept for flow cytometry measurement.
(§6) For Nile red staining of the 0.5 mL non-fixed cell samples, 50 μL of a ready to use Nile red solution (10 μg/mL) were added per sample. Samples were kept on ice for 5 min. Thereafter, they were washed once with 4 mL PBS (4° C., 250×g for 8 min) and finally resuspended in 400 μL PBS and kept for flow cytometry measurement.
(§7) For the viability measurement, 12.5 μL of the ready to use PI solution (10 μg/mL) were added to the 0.5 mL non-fixed cell suspension. After 15 min of incubation on ice, the samples were measured by flow cytometry using a Coulter Epics XL/MCL flow cytometer.
(§8) The viability of the cells of each sample was determined by flow cytometry measurement of the PI content at channel 2 (568-590 nm). Cut-off gates for the fluorescence-dependent differentiation between live and dead cells were defined based on the analysis of cell culture medium control samples.
(§9) Only samples with a cell viability of >=90% relative to control samples were analyzed for phospholipidosis. Each Nile red sample (non-fixed and fixed samples) was measured by flow cytometry at channel 1 (504-541 nm) and channel 4 (660-680 nm).
(§10) For each channel, relative Nile red fluorescence intensity of a test sample was calculated compared to control samples and expressed as a percentage of control fluorescence intensity. The assessment of the phospholipidogenic potential and the first effective concentration (FEC) of a test compound was done manually based on the fluorescence intensities at both wavelengths for the fixed cells, as well as for the non-fixed cells.

Human Hepatocytes = experiment: In Vitro Hepatocyte Stability Assay (Assay 4); format: in vitro ADME; conditions: predicted blood clearance as percent of hepatic blood flow
Protocol: In Vitro Hepatocyte Stability Assay (Assay 4)
The metabolic degradation of test compounds was assayed in a hepatocyte suspension. Cryopreserved hepatocytes were incubated in an appropriate buffer system (e.g., Dulbecco's modified eagle medium plus 3.5 μg glucagon/500 mL, 2.5 mg insulin/500 mL and 3.75 mg/500 mL hydrocortison) containing 5% species serum. Following a 30 min preincubation in an incubator (37° C., 10% CO2), 5 μl of test compound solution (80 μM; from 2 mM in DMSO stock solution diluted 1:25 with medium) were added into 395 μl hepatocyte suspension (cell density in the range 0.25−5×10^6 cells/mL, typically 1×10^6 cells/mL; final concentration of test compound final DMSO concentration […]).
The cells were incubated for six h (incubator, orbital shaker) and samples (25 μl) were taken at 0, 0.5, 1, 2, 4 and 6 h. Samples were transferred into acetonitrile and pelleted by centrifugation (5 min). The supernatant was transferred to a new 96 DeepWell™ plate, evaporated under nitrogen and resuspended. Decline of compound was analyzed by HPLC-MS/MS. CLint (in vitro hepatic intrinsic clearance) was calculated as follows: CLint=Dose/AUC=(C0/CD)/(AUD+Clast/k)×1000/60
C0: initial concentration in the incubation [μM];
CD: cell density of vital cells [cells/mL];
AUD: area under the data [μM×h];
Clast: concentration of last data point [μM];
k: slope of the regression line for compound decline [h^−1].
The calculated in vitro hepatic intrinsic clearance was scaled up to the intrinsic in vivo hepatic clearance (Clint in vivo) and used to predict hepatic in vivo blood clearance (CL) by the use of a liver model (well-stirred model), as follows: CLint,in vivo[mL/min/kg]=(CLint[μL/min/10^6 cells]×hepatocellularity[10^6 cells/g liver]×liver factor [g/kg body weight])/1000 CL[mL/min/kg]=CLint,to vivo×hepatic blood flow[ml/min/kg]/(CLint,in vivo[ml/min/kg]+hepatic blood flow[mL/min/kg])
The in vivo blood clearance was transformed into percent of the hepatic blood flow (% Qh): % Qh=CL[mL/min/kg]/hepatic blood flow[mL/min/kg])×100
Hepatocellularity, human: 1.2×10^7 cells/g liver;
Liver factor, human: 25.7 g/kg body weight;
Hepatic blood flow, human: 21 mL/(min×kg).

hERG channel = hERG channel (Homo sapiens (Human), UniProt Q12809); experiment: hERG-Channel Assay (Assay 2), whole-cell patch clamp in HEK293 cells stably transfected with hERG cDNA; format: cell-based; conditions: for % Inhibition hERG @ 10 μM (assay 2): 35° C.; for inhibition at 10 µM: human, HEK293 cells stably transfected with hERG cDNA, pH 7.4, 35° C.
Chain of hERG channel (Q12809 whole entry): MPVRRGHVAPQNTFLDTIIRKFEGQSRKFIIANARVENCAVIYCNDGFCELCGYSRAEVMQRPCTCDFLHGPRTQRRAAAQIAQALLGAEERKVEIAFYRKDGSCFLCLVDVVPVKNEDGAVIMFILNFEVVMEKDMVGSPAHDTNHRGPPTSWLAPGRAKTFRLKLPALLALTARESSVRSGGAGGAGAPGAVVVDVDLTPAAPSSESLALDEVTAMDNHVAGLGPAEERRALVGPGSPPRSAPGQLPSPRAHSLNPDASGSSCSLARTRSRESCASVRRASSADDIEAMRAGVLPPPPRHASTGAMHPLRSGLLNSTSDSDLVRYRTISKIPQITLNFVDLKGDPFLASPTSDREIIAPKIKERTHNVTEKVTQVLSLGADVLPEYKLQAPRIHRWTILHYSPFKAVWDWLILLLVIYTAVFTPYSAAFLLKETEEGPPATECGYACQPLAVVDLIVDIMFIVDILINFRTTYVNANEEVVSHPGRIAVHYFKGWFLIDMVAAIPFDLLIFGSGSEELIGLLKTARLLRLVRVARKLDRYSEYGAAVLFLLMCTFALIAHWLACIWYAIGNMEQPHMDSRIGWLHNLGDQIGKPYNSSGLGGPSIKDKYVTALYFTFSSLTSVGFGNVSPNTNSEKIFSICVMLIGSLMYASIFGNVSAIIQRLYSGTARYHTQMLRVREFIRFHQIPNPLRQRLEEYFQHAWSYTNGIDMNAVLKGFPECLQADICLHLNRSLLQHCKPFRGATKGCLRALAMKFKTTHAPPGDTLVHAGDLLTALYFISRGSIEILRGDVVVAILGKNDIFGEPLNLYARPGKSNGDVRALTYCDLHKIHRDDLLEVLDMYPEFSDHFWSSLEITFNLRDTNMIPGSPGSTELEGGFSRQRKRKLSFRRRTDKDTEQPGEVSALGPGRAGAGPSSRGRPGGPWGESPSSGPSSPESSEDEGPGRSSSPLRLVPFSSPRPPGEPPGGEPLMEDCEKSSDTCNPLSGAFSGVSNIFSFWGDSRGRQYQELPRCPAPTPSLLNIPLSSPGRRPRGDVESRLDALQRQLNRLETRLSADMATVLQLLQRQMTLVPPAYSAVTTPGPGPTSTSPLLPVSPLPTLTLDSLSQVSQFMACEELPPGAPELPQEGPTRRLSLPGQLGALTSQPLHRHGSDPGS
Text: hERG-Channel Assay (Assay 2)
Cells: HEK (human embryonic kidney) 293 cells were stably transfected with hERG cDNA.
Cells were superfused with a bath solution containing (mM): NaCl (137), KCl (4.0), MgCl2 (1.0), CaCl2 (1.8), Glucose (10), HEPES (10), pH 7.4 with NaOH. Patch pipettes were made from borosilicate glass tubing using a horizontal puller and filled with pipette solution containing (mM): K-aspartate (130), MgCl2 (5.0), EGTA (5.0), K2ATP (4.0), HEPES (10.0), pH 7.2 with KOH. Resistance of the microelectrodes was in the range between 2 and 5 MΩ.
Stimulation and Recording:
Membrane currents were recorded using an EPC-10 patch clamp amplifier and PatchMaster software. hERG-mediated membrane currents were recorded at 35° C., using the whole-cell configuration of the patch-clamp technique. Transfected HEK293 cells were clamped at a holding potential of −60 mV and hERG-mediated inactivating tail currents were elicited using a pulse pattern with fixed amplitudes (activation/inactivation: 40 mV for 2000 ms; recovery: −120 mV for 2 ms; ramp to 40 mV in 2 ms; inactivating tail current: 40 mV for 50 ms) repeated at 15 s intervals. During each inter-pulse interval, 4 pulses scaled down by a factor of 0.2 were recorded for a P/n leak subtraction procedure. Rs compensation was employed up to a level that safely allowed recording devoid of ringing.
Compound Preparation and Application:
The different concentrations of the test compounds were applied sequentially on each of the different cells investigated. A steady state level of baseline current was measured for at least 6 sweeps prior to the application of the first test compound concentration.
The test compound was dissolved in DMSO to yield a master stock solution which was diluted further in DMSO to stock solutions needed for the lower concentrations. Final dilutions in extracellular buffer were prepared freshly from these stocks by a 1:1000 dilution step each before starting the experiments.
Peak current amplitudes were measured 3 ms after the ramp to +40 mV. For baseline and each concentration, the peak currents of the three last sweeps before application of the next concentration were averaged. Residual currents (I/I0) were calculated for each cell as the fraction of actual average peak current and average baseline peak current.

[2] = In Vitro Phospholipidosis Assay (Assay 3), Nile red staining; format: cell-based, human; conditions: human, first effect concentration, U937 cells, read-out: Phospholipidosis FEC IC50 μM (assay 3)
Protocol: as §1, §2, §3, §4, §5, §6, §7, §8, §9, §10

[3] = target: truncated human beta-secretase, BACE1 (amino acids 1-454) (Homo sapiens (Human), UniProt P56817); experiment: BACE1 Assay (Assay 1), fluorescence quench assay; format: biochemical; conditions: pH 4.4
Chain of truncated human beta-secretase, BACE1 (amino acids 1-454) (P56817 22-454): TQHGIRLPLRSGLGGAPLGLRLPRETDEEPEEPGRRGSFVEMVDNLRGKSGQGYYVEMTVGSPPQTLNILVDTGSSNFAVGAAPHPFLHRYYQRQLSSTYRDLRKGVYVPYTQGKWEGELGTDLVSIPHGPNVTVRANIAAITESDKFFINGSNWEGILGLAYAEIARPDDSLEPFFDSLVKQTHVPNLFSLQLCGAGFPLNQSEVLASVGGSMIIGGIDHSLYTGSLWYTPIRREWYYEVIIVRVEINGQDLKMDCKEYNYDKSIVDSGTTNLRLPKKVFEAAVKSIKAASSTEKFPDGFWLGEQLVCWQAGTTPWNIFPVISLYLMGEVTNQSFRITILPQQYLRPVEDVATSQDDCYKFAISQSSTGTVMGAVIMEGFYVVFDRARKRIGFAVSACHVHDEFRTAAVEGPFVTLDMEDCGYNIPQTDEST
Protocol: The substrate was dissolved at 1 mg/ml in DMSO.
The assay was performed in the presence of OptiMEM™ (supernatant collected over 24 h and cleared from cellular debris by centrifugation) containing the ectodomain of BACE1, 25 μl water containing the desired 2-fold concentration of test compound and 2% DMSO, 1 μM substrate peptide, 20 mM NaOAc, pH 4.4, and 0.04% Triton-X100 in a total assay volume of 50 μl in a 384 well plate. In general, 25 μl of compound dilution were added to the plate followed by the addition of 10 μl of BACE1 containing OptiMEM™ diluted 1:10 in water with 0.2% Triton X-100. The reaction was started with the addition of 15 μl substrate in NaOAc buffer. The reaction was incubated at rt (dark) in an Envision® multilabel reader (Perkin Elmer) and the cleavage of the substrate was recorded as kinetic for […] at ex: 485 nm, em: 538 nm. Blank wells containing no enzyme were included on each plate.
The intensity of fluorescence was regressed against time in order to derive velocities of reaction in all 384 wells. These velocities were used for calculating percent control using an uninhibited control containing 1% DMSO as 100% and a blank control performed in the absence of enzyme as 0%. IC50 values were calculated by fitting percent control vs. test compound concentration using Assay Explorer®.

| In vitro Human Hepatocytes % Qh @ 1 μM (assay 4) (Human Hepatocytes) [% Qh] | IC50 [3] [nM] | Compound | IC50 [1] [µM] | % Inhibition hERG @ 10 μM (assay 2) (hERG channel) [%] | IC50 at 48 h [2] [µM] | inhibition at 10 µM (hERG channel) [%] |
| --- | --- | --- | --- | --- | --- | --- |
| 14 |  | COC1CCC2(CC1)Cc1ccc(C#N)cc1[C@]21N=C(N)N(C)C1=O (stereo partly drawn) [drawing 15, reference compound] | 400 | 90 |  |  |
| 14 |  | COC1CCC2(CC1)Cc1ccc(C#N)cc1[C@]21N=C(N)N(C)C1=O (stereo partly drawn) [drawing 18, reference compound] | 400 | 90 |  |  |
| 36 | 1.1 | COC1CCC2(CC1)Cc1ccc(C#CC3CC3)cc1C21N=C(N)N(Cc2cncnc2)C1=O (stereo not drawn) [reference compound] |  |  | 25 | 60 |
| 3.1 | 3 | C[C@@H]1C[C@@]2(Cc3ccc(C#N)cc3[C@]23N=C(N)N(CC(C)(C)Cl)C3=O)C[C@H](C)[C@H]1O [Example 3] |  |  | 200 | 20 |
| 0 | 14.6 | C[C@@H]1CC2(Cc3ccc(Cl)cc3[C@]23N=C(N)N(Cc2ncccn2)C3=O)C[C@H](C)[C@H]1O (stereo partly drawn) [Example 11] |  |  | 200 | 19 |
